The record followed here is US20070213339A1 (Bayer Pharmaceuticals Corporation, priority 2004, published 2007).

This experiment deals with Colo205 human colon carcinoma cell line. Briefly: In vitro tumor cell proliferation assay (MTS, CellTiter 96 Aqueous One Solution). In kind it is cell-based. Particulars: COLO 205, Colo205 cells, 72 hours compound exposure, MTS absorbance at 490 nm, read-out: IC50 (concentration of test compound required to inhibit proliferation of 50% of the cells). The protocol: In Vitro Tumor Cell Proliferation Assay
The adherent H460 human non-small cell lung carcinoma and Colo205 human colon carcinoma cell lines were purchased from the American Type and Culture Collection (ATCC, Manassas, Va.) and maintained in RPMI-1640 growth media supplemented with 10% heat inactivated fetal bovine serum (Gibco, Invitrogen Corp. Grand Island, N.Y.). At 37° C. in a humidified atmosphere of 5% CO2.
The CellTiter 960 Aqueous One Solution kit, MTS, (Promega, Madison, Wis.) was used to measure proliferation of tumor cell lines in vitro. This method monitors the bioreduction of a tetrazolium dye as a measure of cell viability. On Day 0, exponentially growing cells were trypsinized, resuspended in RPMI-1640 growth media supplemented with 10% FCS, 100 u/ml of penicillin G and 100 ug/ml of streptomycin sulfate, and seeded at 2000 cells per well into 96 well microtiter plates. Cells were incubated overnight in a humidified atmosphere of 5% CO2 at 37° C. On Day 1, serial dilutions of compounds were prepared at 2× the finial assay concentration. One hundred microliters of 2× solution was added to test wells in duplicate and control wells received no test compound. The final drug concentration ranged from 0 to 10-20 um in a 5 point dose-response curve. Cells were incubated in the presence of test compounds in a humidified atmosphere of 5% CO2 at 37° C. for 72 hours. After 72 hours of compound exposure, 40 ul of Promega CellTiter 960 Aqueous One Solution was added to each well and absorbance at 490 n-M was measured using a multi-well plate reader. Percent inhibition of proliferation was calculated using the following formula: 100×(1−Absorbancetreated−Background/(Absorbancecontrol−Background)
Absorbancetreated=absorbance at 490 nm in test wells, cells with test compound
Absorbancecontrol=absorbance at 490 nm in control wells, cells with no test compound
Background=absorbance 490 nm in wells containing media and no cells
The concentration of test compound required to inhibit proliferation of 50% of the cells (IC50) was determined by linear regression analysis.
Representative compounds of the invention were tested in the above-described Colo205 human colon carcinoma cell line in vitro assay and found to inhibit human colon carcinoma cell proliferation, and are summarized as follows: […]
For `COc1c(N2CCN(c3ccc(Cl)cc3)CC2)c(F)cc2c(=O)c(C(=O)O)cn(-c3ccc(CN4CCCC4)cc3)c12` [Example 80, 7-[4-(4-chlorophenyl)piperazin-1-yl]-6-fluoro-8-methoxy-4-oxo-1-[4-(pyrrolidin-1-ylmethyl)phenyl]-1,4-dihydroquinoline-3-carboxylic acid], the IC50 was in the range of 500 to 2000 nM.

For `O=C(O)c1cn(-c2ccc(CN3CCCC3)nc2)c2c(Cl)c(N3CCN(c4ccccn4)CC3)c(F)cc2c1=O` [Example 34, 8-chloro-6-fluoro-4-oxo-7-(4-pyridin-2-yl-piperazin-1-yl)-1-[6-(pyrrolidin-1-ylmethyl)pyridin-3-yl]-1,4-dihydroquinoline-3-carboxylic acid], the IC50 lay in the range of 500 to 2000 nM.

As to `N#Cc1c(N2CCN(c3ccccn3)CC2)c(F)cc2c(=O)c(C(=O)O)cn(-c3ccc(CN4CCCC4)cc3)c12` [Example 169, 8-cyano-6-fluoro-4-oxo-7-(4-pyridin-2-ylpiperazin-1-yl)-1-[4-(pyrrolidin-1-ylmethyl)phenyl]-1,4-dihydroquinoline-3-carboxylic acid], the IC50 was 500 to 2000 nM.

Take `COc1c(N2CCN(c3ccccc3)CC2)c(F)cc2c(=O)c(C(=O)O)cn(-c3ccc(CN(C)C)cc3)c12` [Example 97, 1-{4-[(dimethylamino)methyl]phenyl}-6-fluoro-8-methoxy-4-oxo-7-(4-phenylpiperazin-1-yl)-1,4-dihydroquinoline-3-carboxylic acid]: the IC50 was < 500 nM.

Regarding `O=C(O)c1cn(-c2ccc(CN3CCCC3)cc2)c2c(OC(F)(F)Cl)c(N3CCN(c4ccc(F)cc4)CC3)c(F)cc2c1=O` [Example 147, 8-[chloro(difluoro)methoxy]-6-fluoro-7-[4-(4-fluorophenyl)piperazin-1-yl]-4-oxo-1-[4-(pyrrolidin-1-ylmethyl)phenyl]1,4-dihydroquinoline-3-carboxylic acid], the IC50 is < 500 nM.

As to `CN(C)Cc1ccc(-n2cc(C(=O)O)c(=O)c3cc(F)c(N4CCN(c5ncccn5)CC4)c(OC(F)(F)F)c32)cc1` [Example 128, 1-{4-[(dimethylamino)methyl]phenyl}-6-fluoro-4-oxo-7-(4-pyrimidin-2-ylpiperazin-1-yl)-8-(trifluoromethoxy)-1,4-dihydroquinoline-3-carboxylic acid], the IC50 is < 500 nM.

For `COc1c(N2CCN(c3ccccc3C#N)CC2)c(F)cc2c(=O)c(C(=O)O)cn(-c3ccc(CN(C)C)cc3)c12` [Example 95, 7-[4-(2-cyanophenyl)piperazin-1-yl]-1-{4-[(dimethylamino)methyl]phenyl}-6-fluoro-8-methoxy-4-oxo-1,4-dihydroquinoline-3-carboxylic acid], the IC50 lay within 500 to 2000 nM.

Turning to `CCN(CC)Cc1ccc(-n2cc(C(=O)O)c(=O)c3cc(F)c(N4CCN(c5ccc(Cl)cc5)CC4)c(OC)c32)cc1` [Example 118, 7-[4-(4-chlorophenyl)piperazin-1-yl]-1-{4-[(diethylamino)methyl]phenyl}-6-fluoro-8-methoxy-4-oxo-1,4-dihydroquinoline-3-carboxylic acid], the IC50 was < 500 nM.

For the molecule `COc1c(N2CCN(c3ccc(C#N)cc3)CC2)c(F)cc2c(=O)c(C(=O)O)cn(-c3ccc(CN(C)C)cc3)c12` [Example 102, 7-[4-(4-cyanophenyl)piperazin-1-yl]-1-{4-[(dimethylamino)methyl]phenyl}-6-fluoro-8-methoxy-4-oxo-1,4-dihydroquinoline-3-carboxylic acid], the IC50 was < 500 nM.

Regarding `COc1ccccc1N1CCN(c2c(F)cc3c(=O)c(C(=O)O)cn(-c4ccc(CN(C)C)cc4)c3c2OC)CC1` [Example 99, 1-{4-[(dimethylamino)methyl]phenyl}-6-fluoro-8-methoxy-7-[4-(2-methoxyphenyl)piperazin-1-yl]-4-oxo-1,4-dihydroquinoline-3-carboxylic acid], the IC50 lay in the range of 500 to 2000 nM.

As to `COc1c(N2CCN(c3ccccn3)CC2)c(F)cc2c(=O)c(C(=O)O)cn(-c3ccc(CN4CCCC4)cc3)c12` [Example 72, 6-fluoro-8-methoxy-4-oxo-7-(4-pyridin-2-ylpiperazin-1-yl)-1-[4-(pyrrolidin-1-ylmethyl)phenyl]-1,4-dihydroquinoline-3-carboxylic acid], the IC50 was < 500 nM.

Regarding `O=C(O)c1cn(-c2ccc(CNC3CCCC3)cc2)c2c(OC(F)(F)F)c(N3CCN(c4ccc(F)cc4)CC3)c(F)cc2c1=O` [Example 182, 1-(4-cyclopentylaminomethyl-phenyl)-6-fluoro-7-[4-(4-fluorophenyl)-piperazine-1-yl]-4-oxo-8-trifluoromethoxy-1,4-dihydroquinoline-3-carboxylic acid], the IC50 is < 500 nM.

Regarding `CCN(CC)Cc1ccc(-n2cc(C(=O)O)c(=O)c3cc(F)c(N4CCN(c5ccc(F)cc5)CC4)c(OC)c32)cc1` [Example 105, 1-{4-[(diethylamino)methyl]phenyl}-6-fluoro-7-[4-(4-fluorophenyl)piperazin-1-yl]-8-methoxy-4-oxo-1,4-dihydroquinoline-3-carboxylic acid], the IC50 is < 500 nM.

Consider `COc1c(N2CCN(c3ccccc3C#N)CC2)c(F)cc2c(=O)c(C(=O)O)cn(-c3ccc(CN4CCCCC4)cc3)c12` [Example 89, 7-[4-(2-cyanophenyl)piperazin-1-yl]-6-fluoro-8-methoxy-4-oxo-1-[4-(piperidin-1-ylmethyl)phenyl]-1,4-dihydroquinoline-3-carboxylic acid], for which the IC50 is < 500 nM.

Take `COc1c(N2CCN(c3ccc(F)cc3F)CC2)c(F)cc2c(=O)c(C(=O)O)cn(-c3ccc(CN(C)C)cc3)c12` [Example 101, 7-[4-(2,4-difluorophenyl)piperazin-1-yl]-1-{4-[(dimethylamino)methyl]phenyl}-6-fluoro-8-methoxy-4-oxo-1,4-dihydroquinoline-3-carboxylic acid]: the IC50 lay within 500 to 2000 nM.

On to `CCN(C)Cc1ccc(-n2cc(C(=O)O)c(=O)c3cc(F)c(N4CCN(c5ncccc5C#N)CC4)c(OC(F)(F)Cl)c32)cc1` [Example 166, 8-[chloro(difluoro)methoxy]-7-[4-(3-cyanopyridin-2-yl)piperazin-1-yl]-1-(4-{[ethyl(methyl)amino]methyl}phenyl)-6-fluoro-4-oxo-1,4-dihydroquinoline-3-carboxylic acid], for which the IC50 was < 500 nM.

On to `O=C(O)c1cn(-c2ccc(CN3CCCC3)nc2)c2c(Cl)c(N3CCN(c4ccc(F)cc4)CC3)c(F)cc2c1=O` [Example 37, 8-chloro-6-fluoro-7-[4-(4-fluorophenyl)-piperazin-1-yl]-4-oxo-1-[6-(pyrrolidin-1-ylmethyl)pyridin-3-yl]-1,4-dihydroquinoline-3-carboxylic acid], for which the IC50 is < 500 nM.

`COc1c(N2CCN(c3ccc(C(F)(F)F)cc3)CC2)c(F)cc2c(=O)c(C(=O)O)cn(-c3ccc(CN(C)C)cc3)c12` [Example 100, 1-{4-[(dimethylamino)methyl]phenyl}-6-fluoro-8-methoxy-4-oxo-7-{4-[4-(trifluoromethyl)phenyl]piperazin-1-yl}-1,4-dihydroquinoline-3-carboxylic acid]: the IC50 was 2000 to 20000 nM.

With `COc1c(N2CCN(c3ccc([N+](=O)[O-])cc3F)CC2)c(F)cc2c(=O)c(C(=O)O)cn(-c3ccc(CN4CCCC4)cc3)c12` [Example 87, 6-fluoro-7-[4-(2-fluoro-4-nitrophenyl)piperazin-1-yl]-8-methoxy-4-oxo-1-[4-(pyrrolidin-1-ylmethyl)phenyl]-1,4-dihydroquinoline-3-carboxylic acid], the IC50 lay within 500 to 2000 nM.

Consider `CON(C)Cc1ccc(-n2cc(C(=O)O)c(=O)c3cc(F)c(N4CCN(c5ccc(Cl)cc5)CC4)c(Cl)c32)cc1` [Example 52, 8-chloro-7-[4-(4-chlorophenyl)piperazin-1-yl]-6-fluoro-1-(4-{[methoxy(methyl)amino]methyl}phenyl)-4-oxo-1,4-dihydroquinoline-3-carboxylic acid], for which the IC50 is 2000 to 20000 nM.

As to `O=C(O)c1cn(-c2cccc(CN3CCCCC3)c2)c2c(Cl)c(N3CCN(c4cccc(Cl)c4)CC3)c(F)cc2c1=O` [Example 68, 8-chloro-7-[4-(3-chlorophenyl)piperazin-1-yl]-6-fluoro-4-oxo-1-[3-(piperidin-1-ylmethyl)phenyl]-1,4-dihydroquinoline-3-carboxylic acid], the IC50 was 2000 to 20000 nM.

As to `CCN(CC)Cc1ccc(-n2cc(C(=O)O)c(=O)c3cc(F)c(N4CCN(c5ccccn5)CC4)c(OC(F)(F)Cl)c32)cc1` [Example 159, 8-[chloro(difluoro)methoxy]-1-{4-[(diethylamino)methyl]phenyl}-6-fluoro-4-oxo-7-(4-pyridin-2-ylpiperazin-1-yl)-1,4-dihydroquinoline-3-carboxylic acid], the IC50 was < 500 nM.
